According to patent US10294202B2, “Pyrrolidinones as herbicides” (FMC Corporation, priority 2013, dated 2019):

Key:
Rice, Water Seeded = experiment: Test F flood (paddy) test; type: in vivo, Oryza sativa; settings: 62 g ai/ha, 21 d, scale 0-100
From the text: Three plastic pots (ca. 16-cm diameter) per rate were partially filled with sterilized Tama silt loam soil comprising a 35:50:15 ratio of sand, silt and clay and 2.6% organic matter. Separate plantings for each of the three pots were as follows. Seeds from the U.S. of monochoria (Monochoria vaginalis), sedge, umbrella (small-flower umbrella sedge, Cyperus difformis), bulrush, […] bulrush, Scirpus juncoides), and […] (purple […] coccinea), were planted into one 16-cm pot for each rate. Seeds from the U.S. of flatsedge, rice (rice flatsedge, Cyperus iria), sprangletop, Brdd. (bearded sprangletop, Leptochloa fascicularis), one stand of 9 or 10 water seeded rice seedlings (Rice, W.S. Jap, Oryza sativa cv. 'Japonica-[…]' or Rice, W.S. Ind, 'Indica'), and two stands of 3 or 4 seedlings of rice, transplanted (transplanted rice, Oryza sativa cv. 'Japonica-[…]') were planted into one 16-cm pot for each rate. Seeds from the U.S. of barnyardgrass (Echinochloa crus-galli), […] (common […], Alisma plantago-aquatica), and watergrass, late (late watergrass, Echinochloa oryzicola) were planted into one 16-cm pot for each rate. Plantings were sequential so that crop and weed species were at the 2.0 to 2.5-leaf stage at time of treatment. […] Effects of treatments on rice and weeds were visually evaluated by comparison to untreated controls after 21 d. […]

Rice, W.S. Jap = experiment: Test F flood (paddy) test; type: in vivo, Oryza sativa cv. Japonica—M202; settings: 21 d, scale 0-100
Outline: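 Greenhouse paddy, 30/27 °C day/night, 16-h light; sterilized Tama silt loam, 2.6% OM. Plants at 2.0–2.5 leaves; flood 3 cm, compound added directly to water. Visual score at 21 d, 0 = no effect, 100 = complete control, relative to untreated.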

deadnettle = experiment: Test C postemergence herbicide test; type: in vivo, Lamium amplexicaule
From the text: At the same time, plants selected from these crop and weed species and also barley (winter barley, Hordeum vulgare), […]), chickweed (common chickweed, Stellaria media), deadnettle (henbit deadnettle, Lamium amplexicaule), and canarygrass (littleseed canarygrass, Phalaris minor) were planted in pots containing Redi-Earth® planting medium (Scotts Company, 14111 Scottslawn Road, Marysville, Ohio 43041) comprising spaghnum peat moss, vermiculite, wetting agent and starter nutrients and treated with postemergence applications of test chemicals formulated in the same manner. Plants ranged in height from 2 to 18 cm (1- to 4-leaf stage) for postemergence treatments. Treated plants and controls were maintained in a greenhouse for 13 to 15 days, after which time all species were compared to controls and visually evaluated. Plant response ratings, summarized in Table C, are based on a scale of 0 to 100 where 0 is no effect and 100 is complete control. A dash (-) response means no test result.

[1] = tested on: small-flower umbrella sedge (CYPDI); experiment: Test G paddy mixture test (Colby); type: in vivo, Cyperus difformis; settings: applied alone, 14 d; for CYPDI Obsd.: scale 0-100; for CYPDI Obsd. plant response rating (scale 0 to 100): flooded
Outline: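 Weeds sown in Tama soil tubs; barnyardgrass and transplanted japonica rice grown in plug flats. Treated at 2.0–2.5 leaf stage; visual rating 0–100 versus controls after 14 d in greenhouse. Expected mixture effect calculated with Colby's equation; rates in g a.i. per area.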

ducksalad (HETLI) = experiment: Test G paddy mixture test (Colby); type: in vivo, Heteranthera limosa; settings: applied alone, 14 d; for HETLI Obsd.: scale 0-100; for HETLI Obsd. plant response rating (scale 0 to 100): flooded
Experimental: Seeds of small-flower umbrella […], Cyperus difformis) and […], Heteranthera limosa) were sown on the soil surface in two separate quadrants of 11-cm (4-inch) tubs filled with steam pasteurized Tama soil. Simultaneously, plantings of […], Echinochloa crus-galli) and transplanted japonica rice (ORYSA, Oryza sativa) were established in separate “plug” flats. […] Herbicide application timing was targeted at the 2.0 to 2.5 leaf stage and the plants were treated with test chemicals formulated in a non-phytotoxic solvent. Treated plants and controls were maintained in a greenhouse for 14 d, after which time all species were compared to controls and visually evaluated. Plant response ratings are summarized in Tables G1 through G12, and are based on a scale of 0 to 100 where 0 is no effect and 100 is complete control. A dash (-) response means no test result. Colby's Equation was used to determine the herbicidal effects expected from the mixtures. Colby's Equation (Colby, S. R. “Calculating Synergistic and Antagonistic Responses of Herbicide Combinations,” Weeds, 15(1), pp 20-22 (1967)) calculates the expected additive effect of herbicidal mixtures and for two active ingredients is of the form: Pa+b=Pa+Pb-(PaPb/100) where • Pa+b is the percentage effect of the mixture expected from additive contribution of the individual components: • Pa is the observed percentage effect of the first active ingredient at the same use rate as in the mixture, and • Pb is the observed percentage effect of the second active ingredient at the same use rate as in the mixture. In the following Tables, rates are shown in grams of active ingredient per […]); “Obsd.” is the observed effect. “Exp.” is the expected effect calculated from Colby's Equation.

CN1CC(c2ccc(F)c(F)c2)C(C(=O)Nc2cccc(F)c2F)C1=O (stereo not drawn) [Compound 303]
Plant response rating, Rice, Water Seeded (Rice, Water Seeded): 0

O=C1NCC(c2ccc(F)c(F)c2)C1C(=O)Nc1cccc(F)c1F (stereo not drawn) [Compound 17, N-(2,3-difluorophenyl)-4-(3,4-difluorophenyl)-2-oxo-3-pyrrolidinecarboxamide]
Plant response rating, Rice, W.S. Jap (Rice, W.S. Jap; 125 g ai/ha): 0 | Plant response rating, Rice, W.S. Jap (Rice, W.S. Jap; 250 g ai/ha): 15 | Plant response rating, Rice, W.S. Jap (Rice, W.S. Jap; 500 g ai/ha): 15 | Plant response rating, Rice, W.S. Jap (Rice, W.S. Jap; 1000 g ai/ha): 60 | Plant response rating, Rice, W.S. Jap (Rice, W.S. Jap; 2000 g ai/ha): 85 | Plant response rating, Deadnettle (deadnettle; 31 g ai/ha, scale 0 (no effect) to 100 (complete control)): 0 | Plant response rating, Deadnettle (deadnettle; 62 g ai/ha, scale 0 to 100 (0 no effect, 100 complete control)): 0 | Plant response rating, Deadnettle (deadnettle; 125 g ai/ha, scale 0 to 100 (0 no effect, 100 complete control)): 0 | Plant response rating, Deadnettle (deadnettle; 250 g ai/ha, scale 0 to 100 (0 no effect, 100 complete control)): 0

O=C1NC[C@H](c2cccc(C(F)(F)F)c2)[C@H]1C(=O)Nc1ccccc1F [Compound 204, (3R,4S)—N-(2-fluorophenyl)-2-oxo-4-[3-(trifluoromethyl)phenyl]-3-pyrrolidinecarboxamide]
CYPDI Obsd. ([1]; 125 g a.i./ha): 0 | CYPDI Obsd. plant response rating (scale 0 to 100) ([1]; 125 g a.i./ha): 0 | CYPDI Obsd. ([1]; 500 g a.i./ha): 0 | CYPDI Obsd. plant response rating (scale 0 to 100) ([1]; 500 g a.i./ha): 0 | HETLI Obsd. (ducksalad (HETLI); 125 g a.i./ha): 100 | HETLI Obsd. plant response rating (scale 0 to 100) (ducksalad (HETLI); 125 g a.i./ha): 100 | HETLI Obsd. (ducksalad (HETLI); 500 g a.i./ha): 100 | HETLI Obsd. plant response rating (scale 0 to 100) (ducksalad (HETLI); 500 g a.i./ha): 100
